# According to paper PMC6813295, “A tumour-selective cascade activatable self-detained system for drug delivery and cancer imaging” (Nature Communications, 2019):
# Like-named read-outs stand apart in the source and are kept apart here. Where a SMILES comes first, the peptide text is derived from it. The star is where a group is joined. X1 = CC1(C)C(=CC=C2CCCC(C=CC3=[N+](CCCCCC(=O)O)c4ccccc4C3(C)C)=C2*)N(CCCCCC(=O)O)c2ccccc21
# Assays:
# H460 tumour-bearing mice = type: in vivo, mouse; details: IV 14 mg/kg; for retention efficiency in tumour up to 48 h post injection: integrated fluorescence in tumour normalized to 1 h, n = 3, repeated three times
# Experimental: (§1) Animal experiments were performed in accordance with the Guide for the Care and Use of Laboratory Animals and approved by the Institutional Animal Care and Use Committee (IACUC) of the National Center for Nanoscience and Technology (NCNST), China. Female Balb/c nude mice (6–8 weeks, 18–22 g) were purchased from Vital River Laboratory Animal Technology Co. Ltd. H460 cells were subcutaneously implanted into these mice on the right flank. Then the mice were randomly grouped (n = 3). When the tumour grew to a single aspect of about 0.5 cm, we injected the molecules 1, 2 and 3 intravenously in the same dose of 14 mg/kg in PBS solution, respectively. Fluorescence images were measured by a Maestro II in vivo imaging system (CRi) at 1, 2, 4, 6, 8, 12, 24, 48, 72, 96 and 120 h post injection. Further, tumours and other major organs (i.e., heart, liver, spleen, lung and kidney) were collected for ex vivo fluorescence imaging at 48 h post injection. The organ biodistribution of the 1, 2 and 3 was examined using H460 xenografts mice. The mice were sacrificed at 2, 4, 8, 12, 24 or 48 h post injection. Finally, all the major organs and tumour were collected, weighed, and homogenized (0.3 mL of lysis buffer per 100 mg of tissues). The homogeneous tissue solutions were obtained for fluorescence imaging by IVIS Spectrum CT. Known concentrations of compound 1, 2 or 3 are used to make the standard curve (concentration from 2.8 to 25.2 μg/mL), the “Predicted R-Squared” value of 0.99. Then we utilized this standard curve to measure the molecule content in each tissue. In addition, EJ xenograft tumour mice model was built, as above described, to validate the generality of the strategy.
# Supplementary Figure 31∣ Representative NIR fluorescence images of H460 tumour-bearing mice after intravenous administration with molecules 1, 2 and 3 (14 mg/kg, n = 3). Images were acquired at 1 h, 4 h, 12 h, 24 h 48 h, 72 h, 96 h and 120 h post injection (p.i.). The yellow circles marked the same size of the tumour region.
# (§2) (1 picture or pasted object on this page, not shown here)
# Supplementary Figure 32∣ Representative NIR fluorescence images o f H460 tumour-bearing mice after intravenous administrat ed with molecules 1 (14 mg/kg, n = 3) in three groups (In order to test the repeatability of the results, we chose different batches of mice to repeat trials . They were named 1-group, 2-group and 3-group, respectively.). Images were acquired at 1 h, 4 h, 12 h, 24 h 48 h and 72 h post injection (p.i.). All data were obtained by n ormalized fluorescence intensity in tumour. Data are presented as the mean ± s.d. (n= 3).
# [1] = Blood circulation pharmacokinetics; type: in vivo, mouse; details: Balb/c mice, IV single dose 14 mg/kg, blood 0.017–6 h, fluorescence spectroscopy, DAS2.0, mean ± s.d. n = 3
# Experimental: respectively. Cell viability (%) was equal to (Asample - Ablank)/ (Acontrol - Ablank) x 100. All the experiments were performed in triplicate.
# Blood circulation. To investigate the pharmacokinetics of the compound 1, 2 and 3, Balb/c mice were randomly divided into three groups (n = 3). Each group was intravenous (iv) injected with a single dose of 14 mg/kg of compou nd 1, 2 or 3. Blood samples were collected via the orbital venous plexus at 0.017, 0.08 3, 0.25, 0.5, 1, 3, 4 and 6 h post injection and collected into EDTA tubes. The supernatant of the blood samples was collected by centrifugation at 10 000 rpm for 10 min , and the content of compound 1, 2 and 3 in the supernatant w ere determined using fluorescence spectrophotometric measurement. Data for known concentrations of compound 1, 2 or 3 (concentration from 1.2 μM to 25.0 μM) were used to make the standard curve, the “Predicted R-Squared” value of 0.99.
# Preparation and characteristic of liposomes. Liposomes were prepared by a thin lipid film hydration method followed by extrusion. Briefly, PC: CH: DSPE -PEG-NHS = 66: 32: 2 (molar ratio) were dissolved in a chloroform/methanol mixture (4: 1) in a round bottom flask. The lipid film was hydrated with PBS (pH 7.4) after evaporation of the chloroform/methanol solvents. […]
# 3 h. […] Morphologies of liposomes were measured by Tecnai G20 electron microscope.
# [2] = Organ biodistribution from fluorescence of tissue lysates; details: female, Balb/c nude, mouse, in vivo, iv, 14 mg/kg
# Experimental: as §1
# Supplementary Figure 35∣ Quantitative analysis of the fluorescence intensity. In order to ensure the accuracy of the results, we added a standard solution in every tested 96 -well plate. The fluorescence property of molecules 1, 2 and 3 were identical. We take molecule 1 as example to illustrate the quantitative analysis. a. The top view of fluorescence images of a serial concentration of molecule 1 by Maestro II. The number from 1 to 11 represented 2.8, 5.6, 8.4, 11.2, 14.0, 16.8, 19.6, 22.4, 25.2, 28.0, 35.0 (μg/mL), respectively. The control group represented PBS buffer. b.
# Fluorescence intensity (relative to the background signal) increase d linearly with the concentration […]
# as §2
# Supplementary Figure 36 ∣ Representative NIR fluorescence images of tissue lysates. The molecules 1, 2 and 3 (14 mg/kg, n = 3) on H460 tumour-bearing mice after intravenous administration in three groups. The mice were sacrificed at 2 h, 4 h, 8 h, 12 h, 24 h or 48 h post injection . […] The homogenous tissue solutions were obtained for fluorescence imaging. […]
# [3] = fluorescence of diluted tissue lysates, mean ± s.d. n = 3, read-out: tumour uptake / accumulation efficiency at 48 h post injection
Structure (SMILES),retained tumour signal on the fifth day relative to molecules 2 and 3 (H460 tumour-bearing mice) [fold],retention efficiency in tumour up to 48 h post injection (H460 tumour-bearing mice),fluorescence signal retained in tumour on the fifth day (H460 tumour-bearing mice; normalized fluorescence intensity in tumour),blood circulation half-life (t1/2β) [1] [h],"tissue uptake at 48 h [2, 3] [%ID/g]","tissue uptake at 48 h ([2]; fluorescence of tissue lysates, mean ± s.d. n = 3, read-out: liver retention at 48 h post injection) [%ID/g]"
CC[C@H](C)[C@H](NC(=O)[C@@H]1CCCN1C(=O)[C@@H](NC(=O)[C@H](C)N)C(C)C)C(=O)N[C@@H](C)C(=O)N[C@@H](CCC(N)=O)C(=O)N[C@@H](CCCCN)C(=O)N[C@@H](CC(=O)O)C(=O)N[C@@H](CCC(=O)O)C(=O)N[C@H](C(=O)N[C@@H](CC(=O)O)C(=O)N[C@@H](CCCCN)C(=O)N[C@@H](CC(C)C)C(=O)N[C@H](C(=O)N[C@@H](Cc1ccccc1)C(=O)N[C@@H](Cc1ccccc1)C(=O)N[C@@H](C)C(=O)N[C@@H](CCC(=O)O)C(=O)N[C@@H](CSC1=C(C=CC2=[N+](CCCCCC(=O)O)c3ccccc3C2(C)C)CCCC1=CC=C1N(CCCCCC(=O)O)c2ccccc2C1(C)C)C(=O)NCC(=O)O)C(C)C)C(C)C [molecule 1] (H-AVPIAQKDEVDKLVFFAEC(X1)G-OH),~2.5,approximately 22.0%,over 16.0%,1.15 ± 0.10,9.2 ± 0.5,4.1 ± 0.2
CSCC[C@H](N)C(=O)N[C@@H](CC(=O)O)C(=O)N[C@@H](CCC(=O)O)C(=O)N[C@@H](CCCCN)C(=O)N[C@@H](C)C(=O)N[C@@H](CCC(N)=O)C(=O)N[C@@H](CCCCN)C(=O)N[C@@H](CC(=O)O)C(=O)N[C@@H](CCC(=O)O)C(=O)N[C@H](C(=O)N[C@@H](CC(=O)O)C(=O)N[C@@H](CCCCN)C(=O)N[C@@H](CC(C)C)C(=O)N[C@H](C(=O)N[C@@H](Cc1ccccc1)C(=O)N[C@@H](Cc1ccccc1)C(=O)N[C@@H](C)C(=O)N[C@@H](CCC(=O)O)C(=O)N[C@@H](CSC1=C(C=CC2=[N+](CCCCCC(=O)O)c3ccccc3C2(C)C)CCCC1=CC=C1N(CCCCCC(=O)O)c2ccccc2C1(C)C)C(=O)NCC(=O)O)C(C)C)C(C)C [molecule 2] (H-MDEKAQKDEVDKLVFFAEC(X1)G-OH; N-terminus assumed),,less than 10.0%,,,4.2 ± 0.1,
CC[C@H](C)[C@H](NC(=O)[C@@H]1CCCN1C(=O)[C@@H](NC(=O)[C@H](C)N)C(C)C)C(=O)N[C@@H](C)C(=O)N[C@@H](CCC(N)=O)C(=O)N[C@@H](CCCCN)C(=O)N[C@@H](CC(=O)O)C(=O)N[C@@H](CCC(=O)O)C(=O)N[C@H](C(=O)N[C@@H](CC(=O)O)C(=O)N[C@@H](CCC(=O)O)C(=O)N[C@@H](CSC1=C(C=CC2=[N+](CCCCCC(=O)O)c3ccccc3C2(C)C)CCCC1=CC=C1N(CCCCCC(=O)O)c2ccccc2C1(C)C)C(=O)NCC(=O)O)C(C)C [molecule 3] (H-AVPIAQKDEVDEC(X1)G-OH; N-terminus assumed),,less than 10.0%,,1.06 ± 0.17,5.3 ± 0.8,
